Results taken from patent publication US12114658B2, “Compounds having a nitrogen-containing unsaturated six-membered ring and agricultural and horticultural fungicides containing the same as active ingredients” (MITSUI CHEMICALS CROP & LIFE SOLUTIONS, INC., priority 2018, dated 2024).

Key:
[1] = system: Magnaporthe grisea; assay: whole plant or invertebrate; assay type: in vivo; details: Pyricularia oryzae, in Oryza sativa, read-out: control value
[2] = system: Puccinia recondita; assay: Test Example E: brown rust on wheat; assay type: in vivo; details: 250 ppm spray (2.5 ml/pot) before inoculation, wheat variety Norin 61, investigated 7 to 10 days after inoculation
[3] = system: Alternaia brassicicola; assay: Test Example C: Alternaria sooty spot on cabbage; details: Brassica oleracea, read-out: control value
Experimental: (§1) Disease development in Test Examples described below was evaluated in increments of 0.05 by setting 0 as no incidence of disease and 3 as disease development in a plant of untreated group. Further, control values were calculated using the following equation based on disease development.
(§2) <Control Value> Control value=100{1−(n/3)} • n=Disease development of each treated group
Seeds of a test plant (cabbage variety: Shikidori) were planted and cultivated until the cotyledons extended. In the test, the inventive compounds were dissolved into a dimethyl sulfoxide-methanol mixture solution (volume ratio: 9/1), and the resultant solutions were diluted with well water to a concentration of 250 ppm. The thus-obtained dilutions were sprayed to the test plant (2.5 ml/pot). After the dilutions dried, a conidial suspension (4-8×10^5 conidia/ml) of Alternaia brassicicola was inoculated to the plant by spraying. After the inoculation, the plant was kept in a mist chamber at room temperature of 20 to 23° C. for about 48 hours to promote the onset of disease. The disease development was investigated 2 to 3 days after the inoculation, and the effectiveness of the dilutions was evaluated.

[4] = system: Colletotrichum orbiculare; assay: Test Example H: anthracnose on cucumber; details: in Cucumis sativus, read-out: control value
Experimental: as §1, §2
Seeds of a test plant (cucumber variety: Sagami Hanjiro) were planted and cultivated until the first leaf appeared. In the test, the inventive compounds were dissolved into a dimethyl sulfoxide-methanol mixture solution (volume ratio: 9/1), and the resultant solutions were diluted with well water to a concentration of 250 ppm. The thus-obtained dilutions were sprayed to the test plant (2.5 ml/pot). After the dilutions dried, a conidial suspension (2-4×10^5 conidia/ml) of Colletotrichum orbiculare was inoculated to the plant by spraying. After the inoculation, the plant was kept in a mist chamber at room temperature of 20 to 23° C. for about 24 hours to promote the onset of disease. The disease development was investigated 6 to 10 days after the inoculation, and the effectiveness of the dilutions was evaluated.

Measured: pest or weed control at 250 ppm

CCn1c(-c2ccc(O)cc2)c(-n2ncc(C)c2Cl)cc(Cl)c1=O [PY-041, 3-chloro-5-(5-chloro-4-methyl-1H-pyrazol-1-yl)-1-ethyl-6-(4-hydroxyphenyl)pyridine-2(1H)-one]
> 50%: [1] | [2] | [3]

COc1ccc(-c2c(-n3cc(C)cn3)ccc(=O)n2CC(F)F)cc1 [PY-031, 1-(2,2-difluoroethyl)-6-(4-methoxyphenyl)-5-(4-methyl-1H-pyrazol-1-yl)pyridine-2(1H)-one]
> 50%: [3]

COc1ccc(-c2c(-n3ncc(C)c3Cl)cc(Cl)c(=O)n2CC(F)F)cc1 [PY-032, 3-chloro-5-(5-chloro-4-methyl-1H-pyrazol-1-yl)-1-(2,2-difluoroethyl)-6-(4-methoxyphenyl)pyridine-2(1H)-one]
> 50%: all assays above

COn1c(-c2ccc(F)cc2)c(-n2cc(C)cn2)ccc1=O [PY-374, 6-(4-fluorophenyl)-1-methoxy-5-(4-methyl-1H-pyrazol-1-yl)pyridin-2(1H)-one]
> 50%: [3]

CCn1c(-c2ccccc2)c(-n2cnc(Cl)c2Cl)cc(Cl)c1=O [IM-003, 3-chloro-5-(4,5-dichloro-1H-imidazol-1-yl)-1-ethyl-6-phenylpyridine-2(1H)-one]
> 50%: all assays above

CCn1c(-c2ccc(OC)cc2)c(-n2ncc(C)c2Cl)cc(Cl)c1=O [PY-018, 3-chloro-5-(5-chloro-4-methyl-1H-pyrazol-1-yl)-1-ethyl-6-(4-methoxyphenyl)pyridine-2(1H)-one]
> 50%: all assays above

CCn1c(-c2ccccc2)c(-n2cnc(Cl)c2Cl)ccc1=O [IM-001, 5-(4,5-dichloro-1H-imidazol-1-yl)-1-ethyl-6-phenylpyridine-2(1H)-one]
> 50%: all assays above

COn1c(-c2ccc(F)cc2)c(-n2ncc(C)c2Cl)cc(Br)c1=O [PY-382, 3-bromo-5-(5-chloro-4-methyl-1H-pyrazol-1-yl)-6-(4-fluorophenyl)-1-methoxypyridin-2(1H)-one]
> 50%: all assays above

CCn1c(-c2ccc(F)cc2)c(-n2nccc2C(F)(F)F)cc(Cl)c1=O [PY-090, 3-chloro-1-ethyl-6-(4-fluorophenyl)-5-(5-(trifluoromethyl)-1H-pyrazol-1-yl)pyridine-2(1H)-one]
> 50%: all assays above

COn1c(-c2ccc(F)cc2)c(-n2cc(C)cn2)cc(Br)c1=O [PY-381, 3-bromo-6-(4-fluorophenyl)-1-methoxy-5-(4-methyl-1H-pyrazol-1-yl)pyridin-2 (1H)-one]
> 50%: [4] | [3]

CCn1c(-c2ccc(OCC(F)F)cc2)c(-n2ncc(C)c2Cl)cc(Cl)c1=O [PY-046, 3-chloro-5-(5-chloro-4-methyl-1H-pyrazol-1-yl)-6-(4-(2,2-difluoroethoxy)phenyl)-1-eth ylpyridine-2(1H)-one]
> 50%: [1] | [2] | [3]

CCn1c(-c2ccc(OC)cc2)c(-n2cc(C)cn2)ccc1=O [PY-036, 1-ethyl-6-(4-methoxyphenyl)-5-(4-methyl-1H-pyrazol-1-yl)pyridine-2(1H)-one]
> 50%: [4] | [3]

CCn1c(-c2ccc(F)cc2)c(-n2nccc2Cl)cc(Cl)c1=O [PY-104, 3-chloro-5-(5-chloro-1H-pyrazol-1-yl)-1-ethyl-6-(4-fluorophenyl)pyridine-2(1H)-one]
> 50%: all assays above
